In patent US20260374818A1, “CATIONIC PEPTIDES WITH BROAD SPECTRUM ACTIVITY” (priority 2023, published 2026):
Where a SMILES comes first, the peptide text is derived from it. [ ]: non-standard residue; d: D form.

What was measured:
[1] = tested on: P. aeruginosa 27312 wound biofilms; test: Porcine dermal biofilm wound infection model, P. aeruginosa; format: in vivo, porcine; Pseudomonas aeruginosa; conditions: compared with ciprofloxacin, silver sulfadiazine
Excerpt: . Peptide (PEP1=DJK5; PEP3=AB103-D) solutions were used to hydrate Puracol® resorbable dressings made of collagen either alone or in the presence of antibiotic (ABX1=ciprofloxacin). Briefly, partial thickness wounds (10 mm×7 mm×1 mm deep) were created on the backs of the animals then infected with log-phase cultures of bacteria and allowed biofilms to form for 24-hrs. Dressings were applied to infected wounds of either MRSA S. aureus USA300 (FIG. 6A) or P. aeruginosa 27312 (FIG. 6B) as either a single treatment (day 1) or twice treated (Day 1 and 4) and all wounds were excised on day 7 for CFU renumeration. The amount of peptide applied in all treatments was 10 mg while 1 mg of ciprofloxacin was used in and treatment containing antibiotic. Mupirocin and silver sulfadiazine (SSD) were used as positive controls.
In vivo porcine dermal biofilm model: Peptide loaded dressings were evaluated using a porcine dermal biofilm infection model as described previously [Davis, S. C., et al. (2018). The wound-healing effects of a next-generation anti-biofilm silver Hydrofiber wound dressing on deep partial-thickness wounds using a porcine model. International Wound Journal, 15(5), 834-839]. Briefly, partial thickness wounds (10 mm×7 mm×1 mm deep) were created on the backs of the animals then infected with log-phase cultures of bacteria and allowed biofilms to form for 24-hrs. […]

[2] = tested on: 3-day-old oral plaque biofilms; test: Plaque biofilms treated with oral rinse solutions for 14 days; format: cell-based; conditions: 0.12% CHX+10 μg/mL peptide, twice daily
Experimental: Briefly, after the formation of a 3-day-old biofilm, HA disks were rinsed in PBS for 1 minute and assigned to one of five treatment groups: (i) sterile water, (ii) Listerine Total Care Mouthwash (Johnson & Johnson Inc., Canada), (iii) GUM Paroex Mouthwash (Sunstar, USA), (iv) 0.12% CHX+10 μg/mL of peptide DJK-5, and (v) 0.12% CHX+10 μg/mL of peptide AB103-D. For each treatment, the disks were treated twice each day (i.e. at 8 am and […] for the first and second time, respectively). Treatment consisted of a droplet of 40 μl of each solution spread on the surface of the biofilm for 1 minute, followed by rinsing with PBS for 1 minute and then placing the disk back into the 24-well plates under anaerobic conditions at 37 °C. On the 0, 1st, 3rd, 7th, 10th, and 14th day, three disks from each group were collected for confocal microscopy analysis. Biofilms were stained with fluorescent dyes SYTO-9 and propidium iodide, which stain live cells green and dead cells red, respectively. The scale bar represents 200 μm. […]. […] The results indicated improved antibiofilm effects of AB103-D on 3-day-old oral plaque biofilms compared to treatment by various oral rinse solutions for 14 days.

MRSA planktonic cells = test: Planktonic inhibition by AB103-D single substitution variants, MRSA; format: cell-based, methicillin resistant Staphylococcus aureus; conditions: read-out: IC50 of AB103-D alone, planktonic
Excerpt: (§1) A series of single amino acid substitution variants of the AB103-D peptide were generated on cellulose arrays using SPOT-synthesis technology [Hilpert, K., Winkler, D. F., & Hancock, R. E. W. (2007). Peptide arrays on cellulose support: SPOT synthesis, a time and cost efficient method for synthesis of large numbers of peptides in a parallel and addressable fashion. Nature Protocols, 2(6), 1333-1349; Frank, R. (2002). The SPOT-synthesis technique. Synthetic peptide arrays on membrane supports-principles and applications. J Immunol Methods, 267(1), 13-26] to test for enhanced Gram-negative activity against P. aeruginosa and determine which residues contribute to the antibiofilm effects of this peptide. 96 AB103-D variants were generated by replacing each residue in the parent peptide with one of D-Arg, D-Lys, D-Glu, Gly, D-Ala, D-Ile, D-Leu, D-Val and D-Trp. The biofilm inhibitory activity of all 96 AB103-D variants was subsequently assessed against MRSA USA300 LAC or P. aeruginosa PAO1 in a microtitre plate assay [Haney, E. F., Trimble, M. J., & Hancock, R. E. W. (2021). Microtiter plate assays to assess antibiofilm activity against bacteria. Nature Protocols, 16(5), 2615-2632]. […].

[3] = tested on: MRSA biofilms on N/TERT epithelial skin; test: Skin organoid biofilm model, peptide-loaded collagen dressings, MRSA; format: cell-based, methicillin resistant Staphylococcus aureus; conditions: compared to DJK-5 and ciprofloxacin
[4] = tested on: human bronchiolar epithelial cells (HBEs); test: Cytotoxicity (LDH release), human bronchiolar epithelial cells
[5] = tested on: P. aeruginosa PAO1 biofilms; test: Checkerboard biofilm synergy of AB103-D with antimicrobials, PAO1; format: cell-based, Pseudomonas aeruginosa
[6] = tested on: P. aeruginosa LESB58 biofilms on Ker-CT epidermal skin; test: Skin organoid biofilm model, AB103-D loaded Medvance foam dressing, P. aeruginosa LESB58; format: cell-based, Pseudomonas aeruginosa
[7] = tested on: A. baumanii biofilms on Ker-CT epidermal skin; test: Skin organoid biofilm model, AB103-D loaded Medvance foam dressing, A. baumanii; format: cell-based, Acinetobacter baumannii
[8] = tested on: MRSA biofilms on human skin organoid; test: Skin organoid biofilm infection model, peptide solution, MRSA; format: cell-based, methicillin resistant Staphylococcus aureus; conditions: peptide solution 4 hrs (FIG. 3A)
N/TERT keratinocytes = test: Cytotoxicity (LDH release), N/TERT keratinocytes
[9] = tested on: P. aeruginosa PAO1 planktonic cells; test: Planktonic inhibition by AB103-D single substitution variants, P. aeruginosa; format: cell-based; conditions: Pseudomonas; read-out: IC50 of AB103-D alone, planktonic
Excerpt: as §1

[10] = tested on: PAO1 biofilms on human skin organoid; test: Skin organoid biofilm infection model, peptide solution, PAO1; format: cell-based, Pseudomonas aeruginosa; conditions: peptide solution 4 hrs (FIG. 3B)
[11] = tested on: peripheral blood mononuclear cells (PBMCs); test: Cytotoxicity (LDH release), PBMCs
[12] = tested on: P. aeruginosa biofilms on N/TERT epithelial skin; test: Skin organoid biofilm model, peptide-loaded collagen dressings, P. aeruginosa; format: cell-based, Pseudomonas aeruginosa; conditions: compared to DJK-5 and ciprofloxacin

## CC[C@@H](C)[C@@H](NC(=O)[C@@H](C)NC(=O)[C@@H](CCCNC(=N)N)NC(=O)[C@@H](Cc1c[nH]c2ccccc12)NC(=O)[C@@H](CCC(N)=O)NC(=O)[C@H](NC(=O)[C@@H](CCCNC(=N)N)NC(=O)[C@H](NC(=O)[C@H](NC(=O)[C@@H](CCCNC(=N)N)NC(=O)[C@H](NC(=O)[C@H](N)CCCNC(=N)N)C(C)C)C(C)C)[C@H](C)CC)C(C)C)C(N)=O [AB103-D, rvrvirvqwrai-NH2] (H-[dR][dV][dR][dV][dI][dR][dV][dQ][dW][dR][dA][dI]-NH2)
[1]
  Efficacy in porcine skin infection: worked as well or better than ciprofloxacin, mupirocin (for MRSA) or silver sulfadiazine (for P. aeruginosa)
[2]
  Proportion of dead bacteria within the biofilm: more effective than DJK5
  Residual plaque biovolume: superior than DJK5
MRSA planktonic cells
  IC50: 1.96 µM
[3]
  Antibiofilm activity from collagen dressing: clearly superior activity to both DJK-5 and ciprofloxacin
ESKAPEE Pathogens
  Broad spectrum antibiofilm activity, more active than DJK5: 2-4 fold
[4]
  Cytotoxicity (LDH): low toxicity
[5]; PAO1, BM2 minimal media, at least 70% reduction of biofilm biomass
  MBIC of AB103-D alone: 2 µg/mL
[5]; PAO1 biofilms
  Synergy with several other antimicrobials: proved synergistic with several other antimicrobials
[6]
  Bacterial burden on organoid skin, loaded bandage: effectively reduce the bacterial burden
[7]
  Bacterial burden on organoid skin, loaded bandage: effectively reduce the bacterial burden
[8]
  Antibiofilm activity on skin organoid: excellent antibiofilm activity
N/TERT keratinocytes
  Cytotoxicity (LDH): low toxicity
[9]
  IC50: 16 µM
[10]
  Antibiofilm activity on skin organoid: excellent antibiofilm activity
[11]
  Cytotoxicity (LDH): low toxicity
[12]
  Antibiofilm activity from collagen dressing: clearly superior activity to both DJK-5 and ciprofloxacin
